From the supplement of paper PMC10307832

Assays:
Assay in all cases: relative viability (nuclei count vs DMSO), 5 days (fraction); higher = more cells survive
Navitoclax = compound: CC1(C)CCC(c2ccc(Cl)cc2)=C(CN2CCN(c3ccc(C(=O)NS(=O)(=O)c4ccc(N[C@H](CCN5CCOCC5)CSc5ccccc5)c(S(=O)(=O)C(F)(F)F)c4)cc3)CC2)C1 [Navitoclax]
Procedure, shortened: (§1)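 Viability was defined as treated-well nuclei divided by vehicle-well nuclei, with the median taken over replicate plates. Cells from lung cancer lines sat overnight at 37 °C in 1536-well plates, received five √10-spaced library-drug doses by pinning on vehicle-anchored plates, and grew 5 days without medium change before one-step fixation, permeabilisation and Hoechst staining, 4× imaging and MetaXpress nuclear counts. Only plates with control CV under 25% and at least one doubling were kept.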

XAV939 = compound: Oc1nc(-c2ccc(C(F)(F)F)cc2)nc2c1CSCC2 [XAV939]
Procedure, shortened: as §1

C-75 = compound: CCCCCCCC[C@H]1[C@@H](C(=C)C(=O)O1)C(=O)O [C-75]
Procedure, shortened: as §1

[1] = compound: O=C(O)c1ccc(-c2c[nH]c3ncc(-c4ccccc4)cc23)cc1C1CCCC1
Procedure, shortened: as §1

AZD7762 = compound: NC(=O)Nc1cc(-c2cccc(F)c2)sc1C(=O)N[C@H]1CCCNC1 [AZD7762]
Procedure, shortened: as §1

Row | Cell Line | relative viability (Navitoclax; 0.005 µM) | relative viability (Navitoclax; 0.01581 µM) | relative viability (Navitoclax; 0.05 µM) | relative viability (Navitoclax; 0.1581 µM) | relative viability (Navitoclax; 0.5 µM) | relative viability (Navitoclax; 0.5 µM, anchor plate) | relative viability (XAV939; 0.08 µM) | relative viability (XAV939; 0.253 µM) | relative viability (XAV939; 0.8 µM) | relative viability (XAV939; 2.53 µM) | relative viability (C-75; 0.08 µM) | relative viability (C-75; 0.253 µM) | relative viability (C-75; 0.8 µM) | relative viability (C-75; 2.53 µM) | relative viability (C-75; 8 µM) | relative viability ([1]; 0.04 µM) | relative viability ([1]; 0.1265 µM) | relative viability ([1]; 0.4 µM) | relative viability ([1]; 1.265 µM) | relative viability (AZD7762; 0.01 µM) | relative viability (AZD7762; 0.03162 µM) | relative viability (AZD7762; 0.1 µM) | relative viability (AZD7762; 0.2 µM, anchor plate) | relative viability (AZD7762; 0.3162 µM) | relative viability (AZD7762; 1 µM)
1 | LOU-NH91 | 1.01 | 1 | 0.921 | 0.865 | 0.513 | 0.718 | 0.979 | 0.868 | 0.954 | 0.953 | 0.959 | 0.977 | 0.862 | 0.778 | 0.969 | 0.934 | 1.14 | 0.975 | 0.915 | 0.941 | 1.1 | 0.975 | 0.784 | 0.894 | 0.775
2 | LU99A | 0.916 | 1.13 | 0.933 | 1.03 | 1.04 | 0.839 | 0.78 | 0.827 | 0.939 | 1.02 | 1 | 0.928 | 0.97 | 0.834 | 0.858 | 0.958 | 0.941 | 0.894 | 0.65 | 0.943 | 1.1 | 0.995 | 0.356 | 0.986 | 0.414
3 | LXF-289 | 0.974 | 0.989 | 0.884 | 0.99 | 0.972 | 0.949 | 1 | 0.94 | 0.998 | 1.03 | 0.958 | 0.95 | 0.983 | 0.862 | 1.02 | 0.969 | 0.967 | 0.876 | 0.703 | 0.963 | 1.02 | 1.05 | 1.1 | 0.979 | 1.07
4 | NCI-H23 | 0.925 | 0.979 | 0.98 | 0.896 | 0.962 | 0.869 | 0.973 | 0.796 | 0.982 | 0.838 | 0.897 | 1.07 | 0.867 | 0.687 | 0.44 | 0.947 | 1.22 | 0.812 | 0.699 | 0.866 | 1.07 | 0.993 | 0.273 | 0.693 | 0.278
5 | NCI-H322M | 1.03 | 1.1 | 0.926 | 0.974 | 1.06 | 1.24 | 1.03 | 0.835 | 0.852 | 0.655 | 0.964 | 1.22 | 0.905 | 0.839 | 0.952 | 1.01 | 1.02 | 0.956 | 0.886 | 0.956 | 1.06 | 0.928 | 0.589 | 0.683 | 0.397
6 | NCI-H358 | 1.01 | 1.2 | 0.961 | 0.985 | 0.977 |  | 0.795 | 0.77 | 0.857 | 0.777 | 0.849 | 0.896 | 0.874 | 0.854 | 0.693 | 0.893 | 1.17 | 0.88 | 0.611 | 1.02 | 1.13 | 0.878 | 0.536 | 0.758 | 0.444
